From PubChem BioAssay AID264 (DTP/NCI, 2004)
Several values for one entry are separate records, joined by “and”; a condition that tells them apart may be missing. Equal values may be shown once. Inconclusive results are not listed.

Test system: nude mice, LX-1 lung xenograft intrarenal, tumor weight T/C
Assay: NCI In Vivo Anticancer Drug Screen. Data for tumor model Human Lung LX-1 Xenograft (intrarenal inoculation) in NU/NU Swiss (nude) mice
Details: endpoint: mean tumor weight change, higher = larger tumour
Description: The antitumor activity of compounds was measured in mice bearing transplantable tumors. Survival or tumor size were measured and the results are expressed as the measurement made in the treated group (T) divided by the measurement made in the vehicle treated control group (C). The tumor model used in this assay is Human Lung LX-1 Xenograft (intrarenal inoculation) in NU/NU Swiss (nude) mice

[1] = dose: 600.0 mg/kg/injection, schedule: Q04DX003 (sc), vehicle: saline with Tween-80
[2] = dose: 1200.0 mg/kg/injection, schedule: Q04DX003 (sc), vehicle: saline with Tween-80
[3] = dose: 2400.0 mg/kg/injection, schedule: Q04DX003 (sc), vehicle: saline with Tween-80
[4] = dose: 150.0 mg/kg/injection, schedule: Q04DX003 (sc), vehicle: Klucel (hydroxypropylcellulose) (HPC)
[5] = dose: 300.0 mg/kg/injection, schedule: Q04DX003 (sc), vehicle: Klucel (hydroxypropylcellulose) (HPC)
[6] = dose: 600.0 mg/kg/injection, schedule: Q04DX003 (sc), vehicle: Klucel (hydroxypropylcellulose) (HPC)
[7] = dose: 300.0 mg/kg/injection, schedule: Q04DX003 (sc), vehicle: saline with Tween-80
[8] = dose: 100.0 mg/kg/injection, schedule: Q01DX010 (sc), vehicle: saline
[9] = dose: 200.0 mg/kg/injection, schedule: Q01DX010 (sc), vehicle: saline

## CC(=O)O[C@@H]1CO[C@H]2O[C@H]3[C@@H](C(C=O)=C[C@H](O)[C@@H]4C5=C(C(C)C)CC[C@]5(C)CC[C@@]34C)[C@@]2(O)C1=O
dose: 100.0 mg/kg/injection, schedule: Q04DX003 (sc), vehicle: Klucel (hydroxypropylcellulose) (HPC)
  T/C: 94 % of control
dose: 400.0 mg/kg/injection, schedule: Q04DX003 (sc), vehicle: Klucel (hydroxypropylcellulose) (HPC)
  T/C: 54 % of control

## O=C1SC(c2ccccc2)=S=C1c1ccccc1
[1]
  T/C: 224 % of control
[2]
  T/C: 78 % of control
[3]
  T/C: 88 % of control

## O=c1[nH]c2c(ccc3cnccc32)c2c1CCC2
dose: 100.0 mg/kg/injection, schedule: Q04DX003 (sc), vehicle: suspension in saline
  T/C: 87 % of control
dose: 200.0 mg/kg/injection, schedule: Q04DX003 (sc), vehicle: suspension in saline
  T/C: 87 % of control
dose: 400.0 mg/kg/injection, schedule: Q04DX003 (sc), vehicle: suspension in saline
  T/C: 57 % of control
dose: 800.0 mg/kg/injection, schedule: Q04DX003 (sc), vehicle: suspension in saline
  T/C: 109 % of control

## CC(C)CC(=O)NC(C(=O)NC(C(=O)NC(CC(C)C)C(O)CC(=O)NC(C)C(=O)NC(CC(C)C)C(O)CC(=O)O)C(C)C)C(C)C (stereo unspecified)
[4]
  T/C: 70 % of control
[5]
  T/C: 93 % of control
[6]
  T/C: 66 % of control
dose: 1200.0 mg/kg/injection, schedule: Q04DX003 (sc), vehicle: Klucel (hydroxypropylcellulose) (HPC)
  T/C: 51 % of control

## CSCS(=O)C[C@H](CO)NC(=O)/C=C/c1c(C)[nH]c(=O)[nH]c1=O (stereo partly specified)
dose: 0.75 mg/kg/injection, schedule: Q04DX003 (sc), vehicle: saline
  T/C: 76 % of control
dose: 1.5 mg/kg/injection, schedule: Q04DX003 (sc), vehicle: saline
  T/C: 70 % of control
dose: 3.0 mg/kg/injection, schedule: Q04DX003 (sc), vehicle: saline
  T/C: 68 % of control

## NCC1CCC(C(=O)O)CC1 (stereo unspecified)
[7]
  T/C: 167 % of control
[1]
  T/C: 104 % of control
[2]
  T/C: 75 % of control
[3]
  T/C: 79 % of control

## CC1=CC(C)(C)Nc2ccc(CSc3ccccc3)cc21
dose: 75.0 mg/kg/injection, schedule: Q01DX010 (sc), vehicle: saline + Tween-80 + alcohol
  T/C: 105 % of control
dose: 150.0 mg/kg/injection, schedule: Q01DX010 (sc), vehicle: saline + Tween-80 + alcohol
  T/C: 105 % of control
dose: 300.0 mg/kg/injection, schedule: Q01DX010 (sc), vehicle: saline + Tween-80 + alcohol
  T/C: 85 % of control

## O=C(CC(=O)C(F)(F)F)c1csc2ccccc12
dose: 75.0 mg/kg/injection, schedule: Q04DX003 (sc), vehicle: Klucel (hydroxypropylcellulose) (HPC)
  T/C: 81 % of control
[4]
  T/C: 70 % of control
[5]
  T/C: 93 % of control
[6]
  T/C: 87 % of control

## C=CCOCC1CO1 (stereo unspecified)
[8]
  T/C: 87 % of control
[9]
  T/C: 104 % of control
dose: 400.0 mg/kg/injection, schedule: Q01DX010 (sc), vehicle: saline
  T/C: 69 % of control

## CC1(C)OC(=O)N(CO)C1=O
dose: 25.0 mg/kg/injection, schedule: Q01DX010 (sc), vehicle: saline
  T/C: 51 % of control
[8]
  T/C: 116 % of control
[9]
  T/C: 110 % of control

## O=[N+]([O-])c1ccc(Sc2ccncn2)c([N+](=O)[O-])c1
[7]
  T/C: 104 % of control
[1]
  T/C: 105 % of control
[2]
  T/C: 98 % of control

## CN(Cc1cnc2nc(N)nc(N)c2n1)c1ccc(C(=O)N[C@@H](CCC(=O)O)C(=O)O)cc1
dose: 0.5 mg/kg/injection, schedule: Q01DX010 (sc), vehicle: sodium bicarbonate
  T/C: 74 % of control
dose: 1.0 mg/kg/injection, schedule: Q01DX010 (sc), vehicle: sodium bicarbonate
  T/C: 87 % of control
dose: 2.0 mg/kg/injection, schedule: Q01DX010 (sc), vehicle: sodium bicarbonate
  T/C: 18 % of control

## CCCCCCCCCCCCCCCCCC(=O)Nc1ccn(C2OC(CO)C(O)C2O)c(=O)n1 (stereo unspecified)
dose: 75.0 mg/kg/injection, schedule: Q04DX003 (sc), vehicle: saline with Tween-80
  T/C: 115 % of control
dose: 150.0 mg/kg/injection, schedule: Q04DX003 (sc), vehicle: saline with Tween-80
  T/C: 41 % of control
[7]
  T/C: 38 % of control
[1]
  T/C: 30 % of control

## N=C1CCCS1
dose: 18.75 mg/kg/injection, schedule: Q04DX003 (sc), vehicle: saline
  T/C: 121 % of control
dose: 37.5 mg/kg/injection, schedule: Q04DX003 (sc), vehicle: saline
  T/C: 87 % of control
dose: 75.0 mg/kg/injection, schedule: Q04DX003 (sc), vehicle: saline
  T/C: 113 % of control

## Cc1ncc([N+](=O)[O-])n1CCSC(N)=O
dose: 50.0 mg/kg/injection, schedule: Q01DX010 (sc), vehicle: saline with Tween-80
  T/C: 90 % of control

## O=C1N[C@@H]([C@H]2CC[C@H](Cl)CN2)C(=O)N[C@H]1[C@H]1CC[C@H](Cl)CN1
dose: 0.63 mg/kg/injection, schedule: Q01DX010 (sc), vehicle: water
  T/C: 124 % of control
dose: 1.25 mg/kg/injection, schedule: Q01DX010 (sc), vehicle: water
  T/C: 98 % of control
dose: 5.0 mg/kg/injection, schedule: Q01DX010 (sc), vehicle: water
  T/C: 22 % of control
dose: 5.0 mg/kg/injection, schedule: Q04DX003 (sc), vehicle: water
  T/C: 70 % of control
dose: 10.0 mg/kg/injection, schedule: Q04DX003 (sc), vehicle: water
  T/C: 58 % of control

## Nc1nc(N)c2c(Cl)c(CNc3ccc(Cl)c(Cl)c3)ccc2n1
dose: 25.0 mg/kg/injection, schedule: Q01DX010 (sc), vehicle: saline with Tween-80
  T/C: 111 % of control

## CCCCCCCCCCS(=O)CC(CO)NC(=O)/C=C/c1c(C)[nH]c(=O)[nH]c1=O (stereo unspecified)
dose: 9.38 mg/kg/injection, schedule: Q04DX003 (sc), vehicle: distilled water + Tween-80
  T/C: 108 % of control
dose: 18.75 mg/kg/injection, schedule: Q04DX003 (sc), vehicle: distilled water + Tween-80
  T/C: 124 % of control

## CC(=O)C1=C(O)C2(O)C(=O)c3c(c(C)c4ccc(C)c(O)c4c3O)CC2C(N)C1=O (stereo unspecified)
dose: 50.0 mg/kg/injection, schedule: Q04DX003 (sc), vehicle: saline
  T/C: 107 % of control
dose: 100.0 mg/kg/injection, schedule: Q04DX003 (sc), vehicle: saline
  T/C: 110 % of control
dose: 200.0 mg/kg/injection, schedule: Q04DX003 (sc), vehicle: saline
  T/C: 61 % of control
dose: 400.0 mg/kg/injection, schedule: Q04DX003 (sc), vehicle: saline
  T/C: 51 % of control

## Nc1ccccc1N
dose: 25.0 mg/kg/injection, schedule: Q01DX010 (sc), vehicle: Klucel (hydroxypropylcellulose) (HPC)
  T/C: 55 % of control
dose: 100.0 mg/kg/injection, schedule: Q01DX010 (sc), vehicle: Klucel (hydroxypropylcellulose) (HPC)
  T/C: 66 % of control and 75 % of control
dose: 200.0 mg/kg/injection, schedule: Q01DX010 (sc), vehicle: Klucel (hydroxypropylcellulose) (HPC)
  T/C: 83 % of control

## C=C(C)[C@H]1CN[C@H](C(=O)O)[C@H]1CC(=O)O
dose: 10.0 mg/kg/injection, schedule: Q04DX003 (sc), vehicle: saline
  T/C: 164 % of control
dose: 20.0 mg/kg/injection, schedule: Q04DX003 (sc), vehicle: saline
  T/C: 97 % of control

## CCCCOC(=O)/C=C(\Br)C(=O)OCCCC
dose: 100.0 mg/kg/injection, schedule: Q01DX010 (sc), vehicle: saline with Tween-80
  T/C: 166 % of control
dose: 200.0 mg/kg/injection, schedule: Q01DX010 (sc), vehicle: saline with Tween-80
  T/C: 281 % of control
dose: 400.0 mg/kg/injection, schedule: Q01DX010 (sc), vehicle: saline with Tween-80
  T/C: 251 % of control

## COC12C(COC(N)=O)C3=C(C(=O)C(C)=C(N)C3=O)N1CC1C2N1C (stereo unspecified)
dose: 8.0 mg/kg/injection, schedule: Q01DX010 (sc), vehicle: saline
  T/C: 1 % of control and -17 % of control

## COc1cc(OC)c(NC(=O)ON2C(=O)c3ccccc3C2=O)cc1Cl
dose: 25.0 mg/kg/injection, schedule: Q04DX003 (sc), vehicle: saline with Tween-80
  T/C: 93 % of control
dose: 50.0 mg/kg/injection, schedule: Q04DX003 (sc), vehicle: saline with Tween-80
  T/C: 79 % of control
dose: 100.0 mg/kg/injection, schedule: Q04DX003 (sc), vehicle: saline with Tween-80
  T/C: 68 % of control
dose: 200.0 mg/kg/injection, schedule: Q04DX003 (sc), vehicle: saline with Tween-80
  T/C: 92 % of control

## Nc1ccc(C(OC(=O)c2cc3ccccc3c(Cc3c(O)c(C(=O)OC(c4ccc(N)cc4)(c4ccc(N)cc4)c4ccc(N)cc4)cc4ccccc34)c2O)(c2ccc(N)cc2)c2ccc(N)cc2)cc1
dose: 36.0 mg/kg/injection, schedule: Q04DX003 (sc), vehicle: saline with Tween-80
  T/C: 87 % of control
dose: 72.0 mg/kg/injection, schedule: Q04DX003 (sc), vehicle: saline with Tween-80
  T/C: 116 % of control
dose: 144.0 mg/kg/injection, schedule: Q04DX003 (sc), vehicle: saline with Tween-80
  T/C: 67 % of control
dose: 288.0 mg/kg/injection, schedule: Q04DX003 (sc), vehicle: saline with Tween-80
  T/C: 58 % of control
